The source of these data is patent US8987471B2, “Substituted dihydropyrazoles as sphingosine receptor modulators” (Allergan, Inc., priority 2013, dated 2015).

For this test, the target named is T1, human S1P1 receptor (Homo sapiens, UniProt P21453).
T1 construct: expressed in transfected cells; membranes used
As to the kind of experiment: GTP γ35S binding assay for S1P1 activity. Format: biochemical. The following applies: membranes of cells stably expressing the S1P1 receptor, test concentrations 0.08 to 5,000 nM. As to the method: Compounds of the invention were tested for S1P1 activity using the GTP γ^35S binding assay. These compounds may be assessed for their ability to activate or block activation of the human S1P1 receptor in cells stably expressing the S1P1 receptor.
GTP γ^355 binding was measured in the medium containing (mM) HEPES 25, pH 7.4, MgCl2 10, NaCl 100, dithiothreitol 0.5, digitonin 0.003%, 0.2 nM GTP γ^355, and 5 μg membrane protein in a volume of 150 μl. Test compounds were included in the concentration range from 0.08 to 5,000 nM unless indicated otherwise. Membranes were incubated with 100 μM 5′adenylylimidodiphosphate for 30 min, and subsequently with 10 μM GDP for 10 min on ice. Drug solutions and membrane were mixed, and then reactions were initiated by adding GTP γ^355 and continued for 30 min at 25° C. Reaction mixtures were filtered over Whatman GF/B filters under vacuum, and washed three times with 3 mL of ice-cold buffer (HEPES 25, pH 7.4, MgCl2 10 and NaCl 100). Filters were dried and mixed with scintillant, and counted for ^35S activity using a β-counter. Agonist-induced GTP γ^35S binding was obtained by subtracting that in the absence of agonist. Binding data were analyzed using a non-linear regression method. In case of antagonist assay, the reaction mixture contained 10 nM S1P in the presence of test antagonist at concentrations ranging from 0.08 to 5000 nM.

SMILES strings stand for the structures.

T1 sequence (P21453 whole entry): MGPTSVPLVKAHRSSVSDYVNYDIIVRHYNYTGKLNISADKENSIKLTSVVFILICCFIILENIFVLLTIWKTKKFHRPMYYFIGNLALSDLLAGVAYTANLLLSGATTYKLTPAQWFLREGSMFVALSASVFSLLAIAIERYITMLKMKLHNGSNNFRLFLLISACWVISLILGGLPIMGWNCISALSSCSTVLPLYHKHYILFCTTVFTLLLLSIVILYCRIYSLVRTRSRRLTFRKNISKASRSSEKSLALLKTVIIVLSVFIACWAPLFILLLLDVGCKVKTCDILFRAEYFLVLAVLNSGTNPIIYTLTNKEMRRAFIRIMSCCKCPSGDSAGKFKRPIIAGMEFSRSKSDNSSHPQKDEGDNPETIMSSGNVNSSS

In turn, `CCCN1N=C(COc2ccc(CNCCCP(=O)(O)O)cc2C)CC1c1ccccc1` (stereo not shown) [Compound 1, [3-({3-Methyl-4-[(5-phenyl-1-propyl-4,5-dihydro-1H-pyrazol-3-yl)methoxy]benzyl}amino)propyl]phosphonic acid] returned an EC50 of 57 nM.
